Literature values, collected in patent US20070149578A1, “Combination Therapy” (Pfizer, Inc., priority 2000, published 2007).

Assays:
[1] = test system: smooth muscle cell migration; conditions: see International Patent Application Number PCT/EP95/00847
calcium channel = conditions: see International Patent Application Number PCT/EP94/02697

Row | Structure (SMILES) | inhibitor of smooth muscle cell migration [1] | calcium channel blocking activity (calcium channel)
1 | CCOC(=O)C1=C(COCCN)NC(C)=C(C(=O)OC)[C@H]1c1ccccc1Cl (single isomer, unassigned) [R(+) isomer] | potent inhibitor | little or no calcium channel blocking activity
2 | CCOC(=O)C1=C(COCCN)NC(C)=C(C(=O)OC)[C@@H]1c1ccccc1Cl (single isomer, unassigned) [S(−) isomer] | – | substantially confined to the S(−) isomer
